Reference: patent publication US20090136578A1, “Pharmaceutical Composition Comprising Perindopril or Its Salts” (LEK Pharmaceutical d.d., priority 2005, published 2009)

Legend:
Assay type in all cases: physicochemical
[1] = Stress stability of binary mixture perindopril erbumine:Avicel 1:2, HPLC degradation products; conditions: binary mixture with Avicel 1:2
Procedure: (§1) For the comparative tests, samples of perindopril erbumine with different particle size were mixed with some common pharmaceutically acceptable excipients in binary or ternary mixtures. Pharmaceutical compositions, particularly tablets, with perindopril erbumine having different particle size were prepared as well. Binary and ternary mixtures and tablets were exposed to the stress condition, e.g. 60° C. for 14 days or 40° C./75% relative humidity for 1 month. Degradation products of perindopril were determined using HPLC method as described in European Pharmacopea 5.0 (January 2005, monograph for Perindopril tert-butylamine—pages 2210-2212).
Samples of perindopril erbumine having large or small particles were mixed with microcrystalline cellulose (Avicel) into the binary mixtures having a ratio perindopril erbumine:Avicel=1:2. Binary mixtures were closed into vials and exposed to the stress condition of 60° C. for 14 days. Degradation products (impurities B and F) of perindopril were determined using HPLC method as described in European Pharmacopea 5.0 (p. 2210-2212).

[2] = Stress stability of binary mixture perindopril erbumine:anhydrous lactose 1:2, HPLC degradation products; conditions: binary mixture with anhydrous lactose 1:2
Procedure: as §1
Samples of perindopril erbumine having large or small particles were mixed with anhydrous lactose into the binary mixtures having a ratio perindopril erbumine:anhydrous lactose=1:2. Binary mixtures were closed into vials and exposed to the stress condition of 60° C. for 14 days. Degradation products (impurities B and F) of perindopril were determined using HPLC method as described in European Pharmacopea 5.0 (p. 2210-2212).

[3] = Stress stability of binary mixture perindopril erbumine:Aerosil 15:1, HPLC degradation products; conditions: binary mixture with Aerosil 15:1
Procedure: (§2) For the comparative tests, samples of perindopril erbumine with different particle size were mixed with some common pharmaceutically acceptable excipients in binary or ternary mixtures. Pharmaceutical compositions, particularly tablets, with perindopril erbumine having different particle size were prepared as well. Binary and ternary mixtures and tablets were exposed to the stress condition, e.g. 60° C. for 14 days or 40° C./75% relative humidity for 1 month.
Samples of perindopril erbumine having large or small particles were mixed with colloidal anhydrous silicon dioxide (Aerosil) into the binary mixtures having a ratio perindopril erbumine:Aerosil=15:1. Binary mixtures were closed into vials and exposed to the stress condition of 60° C. for 14 days.

[4] = Stress stability of ternary mixture perindopril erbumine:Avicel:Syloid 2:10:1, HPLC degradation products; conditions: ternary mixture with Avicel and Syloid 2:10:1
Procedure: as §2
Samples of perindopril erbumine having large or small particles were mixed with microcrystalline cellulose (Avicel) and micronized silicon dioxide (Syloid) into the ternary mixtures having ratio perindopril erbumine:Avicel:Syloid=2:10:1. Ternary mixtures were exposed to the stress condition of 40° C./75% relative humidity for 1 month.

[5] = Stress stability of ternary mixture perindopril erbumine:anhydrous lactose:Syloid 2:10:1, HPLC degradation products; conditions: ternary mixture with anhydrous lactose and Syloid 2:10:1
Procedure: as §2
Samples of perindopril erbumine having large or small particles were mixed with anhydrous lactose and micronized silicon dioxide (Syloid) into the ternary mixtures having ratio perindopril erbumine:anhydrous lactose:Syloid=2:10:1. Ternary mixtures were exposed to the stress condition of 40° C./75% relative humidity for 1 month.

[6] = Stress stability of tablets of Example 6, HPLC degradation products
Procedure: as §2
Samples of perindopril erbumine having large or small particles were mixed with selected pharmaceutical excipients in stated ratio:
Mixture was homogenized and pressed into the tablets. The amount of the perindopril erbumine in the tablets was defined by the mass of the tablet. Tablet could contain 2, 4 or 8 mg of perindopril erbumine.
Tablets were exposed to the stress condition of 60° C. for 14 days and 40° C./75% relative humidity for 1 month.

[7] = Comparative stress tests of perindopril erbumine of different particle size with excipients; conditions: in comparison to perindopril erbumine having small particles; regardless of excipients or testing conditions
Procedure: During the development of the stable pharmaceutical composition of perindopril erbumine comparative tests were performed to investigate effects of various pharmaceutically acceptable excipients e.g. fillers, disintegrants and glidants, and different particle size of perindopril erbumine on the stability of perindopril erbumine.
as §2

SMILES | impurity B ([1]; 60° C., 14 days) [%] | impurity F ([1]; 60° C., 14 days) [%] | sum of impurities ([1]; 60° C., 14 days) [%] | impurity B ([1]; beginning) [%] | impurity F ([1]; beginning) [%] | sum of impurities ([1]; beginning) [%] | impurity B ([2]; 60° C., 14 days) [%] | impurity F ([2]; 60° C., 14 days) [%] | sum of impurities ([2]; 60° C., 14 days) [%] | impurity B ([2]; beginning) [%] | impurity F ([2]; beginning) [%] | sum of impurities ([2]; beginning) [%] | impurity B ([3]; 60° C., 14 days) [%] | impurity F ([3]; 60° C., 14 days) [%] | sum of impurities ([3]; 60° C., 14 days) [%] | impurity B ([3]; beginning) [%] | impurity F ([3]; beginning) [%] | sum of impurities ([3]; beginning) [%] | impurity B ([4]; 40° C./75% RH, 1 month) [%] | impurity F ([4]; 40° C./75% RH, 1 month) [%] | further results
CCC[C@H](N[C@@H](C)C(=O)N1[C@H](C(=O)O)C[C@@H]2CCCC[C@@H]21)C(=O)OCC [perindopril erbumine - large particles, perindopril erbumine] | <0.05 | 0.07 | 0.07 | <0.05 | <0.05 | <0.05 | <0.05 | 0.13 | 0.13 | <0.05 | <0.05 | <0.05 | <0.05 | 0.08 | 0.08 | <0.05 | <0.05 | <0.05 | 0.05 | 0.18 | sum of impurities ([4]; 40° C./75% RH, 1 month): 0.29%; impurity B ([4]; beginning): <0.05%; impurity F ([4]; beginning): <0.05%; sum of impurities ([4]; beginning): 0.11%; impurity B ([5]; 40° C./75% RH, 1 month): 1.09%; impurity F ([5]; 40° C./75% RH, 1 month): 0.70%; sum of impurities ([5]; 40° C./75% RH, 1 month): 1.92%; impurity B ([5]; beginning): <0.05%; impurity F ([5]; beginning): <0.05%; sum of impurities ([5]; beginning): 0.10%; impurity B ([6]; 40° C./75% RH, 1 month): 0.13%; impurity F ([6]; 40° C./75% RH, 1 month): 0.28%; sum of impurities ([6]; 40° C./75% RH, 1 month): 0.41%; impurity B ([6]; 60° C., 14 days): 0.56%; impurity F ([6]; 60° C., 14 days): 0.63%; sum of impurities ([6]; 60° C., 14 days): 1.40%; impurity B ([6]; beginning): <0.05%; impurity F ([6]; beginning): 0.07%; sum of impurities ([6]; beginning): 0.07%; degradation of perindopril erbumine [7]: smaller
CCC[C@H](N[C@@H](C)C(=O)N1[C@H](C(=O)O)C[C@@H]2CCCC[C@@H]21)C(=O)OCC [perindopril erbumine - small particles, perindopril erbumine] | <0.05 | 0.74 | 0.81 | <0.05 | <0.05 | <0.05 | <0.05 | 0.77 | 0.88 | <0.05 | <0.05 | <0.05 | <0.05 | 0.80 | 0.80 | <0.05 | <0.05 | <0.05 | 0.14 | 0.17 | sum of impurities ([4]; 40° C./75% RH, 1 month): 0.36%; impurity B ([4]; beginning): <0.05%; impurity F ([4]; beginning): <0.05%; sum of impurities ([4]; beginning): 0.11%; impurity B ([5]; 40° C./75% RH, 1 month): 1.24%; impurity F ([5]; 40° C./75% RH, 1 month): 1.35%; sum of impurities ([5]; 40° C./75% RH, 1 month): 2.75%; impurity B ([5]; beginning): <0.05%; impurity F ([5]; beginning): <0.05%; sum of impurities ([5]; beginning): 0.10%; impurity B ([6]; 40° C./75% RH, 1 month): 0.09%; impurity F ([6]; 40° C./75% RH, 1 month): 0.51%; sum of impurities ([6]; 40° C./75% RH, 1 month): 0.65%; impurity B ([6]; 60° C., 14 days): 0.27%; impurity F ([6]; 60° C., 14 days): 0.96%; sum of impurities ([6]; 60° C., 14 days): 1.79%; impurity B ([6]; beginning): <0.05%; impurity F ([6]; beginning): <0.05%; sum of impurities ([6]; beginning): 0.05%
